In patent publication US20210161837A1, “METHODS FOR TREATING CANCER WITH RORGAMMA INHIBITORS” (The Regents of the University of California, priority 2016, published 2021):

How the values were obtained:
MCF-7 = test: Cell viability (CellTiter-GLO), 4 days, ER-positive cells; assay type: cell-based; details: Homo sapiens, MCF7, 96 h; ER-positive MCF-7, 4 days
Experimental: (§1) For cell viability, cells were seeded in 96-well plates at 1500-2500 cells per well (optimum density for growth, depending on the specific cell line) in a total volume of 100 μl media. Serially diluted compounds in 100 μl of media were added to the cells 12 hours later. After 4 days of incubation, Cell-Titer GLO reagents (Promega) were added and luminescence was measured on GLOMAX microplate luminometer (Promega), according to the manufacturer's instructions. All experimental points were set up as sextuplicate as biological replication and the entire experiments were repeated three times. The data are presented as percentage of viable cells with vehicle treated cells set as 100. The estimated in vitro IC50 values were calculated using GraphPad Prism 6 software.

T47D = test: as above; assay type: cell-based; details: Homo sapiens, 96 h
Experimental: as §1

[1] = system: endogenous AR expression in RWPE1 and PZ-HPV7 cells; test: Immunoblotting of AR expression in non-malignant prostate epithelial cells; assay type: cell-based, human
Experimental: Immunoblotting analysis of RORγ and AR expression in non-malignant, human prostate epithelial RWPE1 and PZ-HPV7 cells within indicated treatments is shown.
(§2) Total RNA was isolated from cells in 6-well or 10-cm plates or from xenograft tumors, and the cDNA was prepared, amplified and measured in the presence of SYBR as described in Yang, P., et al., Molecular and cellular biology 32, 3121-3131 (2012). Briefly, the fluorescent values were collected and a melting curve analysis was performed. Fold difference was calculated as described previously Yang, P., et al. (see, id). The experiments were performed at least three times with data presented as mean values±s.d. Cell lysates were analyzed by immunoblotting with antibodies specifically recognizing RORγ, AR, AR-V7 and the indicated proteins.

[2] = system: AR-positive PCa cell models including 22Rv1, VCaP, LNCaP, LAPC4 and PC346C; test: Growth inhibition in other AR-positive PCa cell models; assay type: cell-based, human
Experimental: (§3) (a&b) C4-2B and 22Rv1 cell proliferation after the RORγ antagonist treatment. Cells were seeded in 6-well plates and counted after cells were treated with indicated concentrations of RORγ antagonists for 0, 2, 4 and 6 days by Coulter counter. […] (e) representative images of TUNEL positive cells treated with vehicle or the antagonist (5 μM) in 22Rv1 cells are shown. […] Three days later, cells were harvested for immunoblotting with indicated antibodies.
(§4) LNCaP, C4-2B, 22Rv, PC-3, and PC346C prostate cancer cells were cultured in RPMI1640, VCaP, HEK293T and human fibroblast IMR90 cells were in DMEM, LAPC-4 was in Iscove's MEM (all from Corning), and RWPE-1 and PZ-HPV-7 were in Keratinocyte Serum Free Medium (K-SFM) (Invitrogen) with the supplements. All the culture media except for RWPE-1 and PZ-HPV-7 were supplemented with 10% FBS (Hyclone) except indicated otherwise. For experiments, C4-2B cells were cultured in RPMI supplemented with 9% cds-FBS plus 1% regular FBS (to mimic the CRPC condition) unless indicated otherwise and 22Rv1 cells were cultured in RPMI supplemented with 10% cds-FBS. Cells were grown at 37° C. in 5% CO2 incubators. LNCaP, VCaP, 22Rv1, PC-3, 293T, IMR90, PZ-HPV-7 and RWPE-1 were from ATCC. C4-2B was from UroCor Inc. (Oklahoma City, Okla.). […]

22Rv1 xenografts = test: 22Rv1 xenograft tumor growth; assay type: in vivo, mouse; details: 5 mg/kg, i.p., 5 times a week, 21-24 days
C4-2B xenografts = test: C4-2B xenograft tumor growth; assay type: in vivo, mouse; details: 20 mg/kg, i.p., 5 times a week, 21-24 days
[3] = system: lung cancer cells (A427, Calu1, A549, H23, H358, H1666, HCC827, PC-9, H69, H209); test: Cell viability (CellTiter-GLO), 4 days, lung cancer cells; assay type: cell-based; details: Homo sapiens, 96 h, NSCLC and SCLC lung cancer cells
Source text: All those cells are derived from human tumors of non-small cell lung carcinoma (NSCLC).

C4-2B cells = test: Cell survival: colony formation and apoptosis (caspase-3/7, TUNEL); assay type: cell-based, human
Experimental: (§5) Data shown are mean percentage of apoptotic cells±s.d. […] Data shown are mean±s.d. Significance was calculated using Student's t-test. *p<0.05, **p<0.01.
as §3
as §4, with “ATCC.” for “ATCC. C4-2B was from UroCor Inc. (Oklahoma City, Okla.).”

22Rv1 cells = test: as above; assay type: cell-based, human
Experimental: as §5, §3
as §4, with “ATCC.” for “ATCC. C4-2B was from UroCor Inc. (Oklahoma City, Okla.).”

AR expression = test: Immunoblotting of AR expression in 22Rv1, LAPC4 and PC346C cells; assay type: cell-based, human; details: 22Rv1, LAPC4, PC346C cells, 72 hours
Experimental: as §2

[4] = system: gastric cancer KATO III cells; test: Cell viability (Cell-Titer GLO), 4 days, gastric cancer cells; assay type: cell-based, human
Experimental: Experiments were independently performed three times.
as §1, with “100.” for “100. The estimated in vitro IC50 values were calculated using GraphPad Prism 6 software.”

O=C(Cc1ccccc1[N+](=O)[O-])Nc1ccc(-c2ccc(C(O)(C(F)(F)F)C(F)(F)F)cc2F)cc1 [XY018, N-(2′-fluoro-4′-(1,1,1,3,3,3-hexafluoro-2-hydroxypropan-2-yl)-[1,1′-biphenyl]-4-yl)-2-(2-nitrophenyl)acetamide]
IC50 (MCF-7): ~9 µM
IC50 (T47D): ~9 µM
effect on endogenous AR expression in non-malignant cells [1]: did not have any significant effect
growth inhibition [2]: strong growth inhibition
tumor growth inhibition (22Rv1 xenografts): strong tumor growth inhibition
tumor growth inhibition (C4-2B xenografts): strong tumor growth inhibition
IC50 [3]: 3.3 to 9 µM
inhibition of cell survival (colony formation, apoptosis) (C4-2B cells): pronounced inhibition of cell survival
inhibition of cell survival (colony formation, apoptosis) (22Rv1 cells): pronounced inhibition of cell survival
AR expression (AR expression): potent does dependent XY018 inhibition of AR expression
inhibition of growth and survival [4]: strongly inhibited the growth and survival
